From publication PMC2360244 (British Journal of Cancer, 2007) come the findings set out here.

The test system of one data set is HUVECs. Put plainly: cells. Particulars: Homo sapiens, HUVEC, read-out: IC50, growth of HUVECs. The procedure:
(§1) Control cells were treated with the combined respective vehicle.

Data set [1] deals with primary human mammary epithelial cells (HMEC). Put plainly: cells. The procedure:
as §1

In data set [2] the test system is H3 acetylation and p21waf1,cip1 in A2780 ovarian carcinoma cells. Put plainly: Western blot of acetylated H3 and p21waf1,cip1 in A2780 cells (class I HDAC readout). In kind it is cell-based, human. Here is the method:
(§2) Human A2780 ovarian carcinoma cells were incubated with the indicated concentrations of HDAC inhibitors. Total cell lysates were prepared and analysed by SDS–PAGE. […] To control for equal loading, blots were stripped and re-probed with mouse monoclonal antiactin IgM (Ab-1, Oncogene Research products, Merck, Darmstadt, Germany). […] Protein–antibody complexes were then visualised by chemiluminescence (Pierce Chemical Co., Perbioscience, Erembodegem, Belgium) or fluorescence (Odyssey) according to manufacturer's instructions.
(§3) Total cell lysates were prepared and analysed by SDS–PAGE. Levels of acetylated H3 and tubulin, and of total levels of H3 and tubulin and of p21^waf1, cip1 and Hsp70 and c-raf protein, were detected using rabbit polyclonal and mouse monoclonal antibodies, followed by ECL detection as indicated in the Methods section. To control for equal loading, blots were stripped and re-probed with antibodies against actin and the nuclear protein Lamin B1. A representative experiment out of three is shown.
For orientation: Immunoblotting shows a protein as a band on a membrane.

The test system of data set [3] is tubulin acetylation and Hsp70 in A2780 ovarian carcinoma cells. Put plainly: Western blot of acetylated tubulin and Hsp70 in A2780 cells (HDAC6 readout). In kind it is cell-based, human. Particulars: 24 h, western blot. The procedure:
as §2, §3

In data set [4] the test system is A2780 ovarian carcinoma cells. Put plainly: Annexin V staining (apoptosis), FACS. In kind it is cell-based, human. Particulars: 48 h, concentration-dependent. Here is the method: Human A2780 ovarian carcinoma cells were seeded at 2 × 10^6 cells per 75-cm^2 flask and, after 24 h, incubated with the indicated concentration of test compound for 48 h. The cells were subsequently collected, centrifuged and washed with PBS. The cell pellets were stained with Annexin-V-FITC antibody and propidium iodide with a kit from PharMingen, BD Biosciences, Erembodegem, Belgium (cat 66121E).
Cells were stained with Annexin V (Pharmingen) and propidium iodide, and analysed by FACS. […] Membrane-damaged cells were defined as both Annexin V- and propidium iodide-positive. Shown are mean values±variation for two independent experiments. […] Green asterisks represent mitotic cells, while red arrows point at specific DNA fragmentation. (B) Rat Aortic Ring Assays were performed as described in the Methods section.

Data set [5] has as its system A2780 ovarian carcinoma xenograft. Put plainly: A2780 ovarian xenograft, tumour growth. It counts as in vivo, mice. Particulars: median tumour size at end of study. Here is the method:
(§4) All mice used in the in vivo studies were athymic male NMRI nu/nu mice purchased from Janvier (France) and were treated according to the ethical guidelines prescribed by UKCCCR. A2780 ovarian, HCT116 colon and H460 lung carcinoma cells were injected s.c. (10^7 cells per 200 μl) into the inguinal region of Nude mice. […] Tumour size was determined using caliper measurement and tumour volume was determined by using the formula: TV=(a^2 × b)/2 (in which a represents the width and b the length).
Mice were treated orally once daily (q.d.) between day 4 and 28 (A2780) or between day 4 and 32 (H460 and HCT116). (A) A2780 ovarian tumours were measured at least twice a week throughout the study, and results are represented as the median tumour size, expressed in mm^3, of each individual group (n=10). (B) Mice were treated orally q.d. at the indicated doses. Results are represented as the treated/control values (%) of the median tumour size (n=10) at the end of the study.

In another data set the test system is p21waf1,cip1 promoter. Put plainly: p21waf1,cip1 promoter activity in vivo, A2780-p21waf1,cip1ZsGreen xenograft. The arrangement: species or system mice. Particulars: 40 mpk p.o. once, 24 h after dosing. Here is the method: To generate an HDAC inhibitor-responsive p21^waf1,cip1 promoter construct, the –1300 to +88 region of the p21^waf1,cip1 promoter was cloned into pGL3-basic-ZsGreen and stably transfected into A2780 ovarian carcinoma cells ([Belien et al, 2006]). For in vivo analysis of p21^waf1,cip1 promoter activity, A2780-p21^waf1,cip1ZsGreen cells were injected s.c. (10^7 cells per 200 μl) into the inguinal region of Nude mice and caliper-measurable tumours were obtained after 12 days. […] Tumours were collected using transcardial perfusion fixation with 4% paraformaldehyde. Cryosections of 10-μm thickness were mounted on glass slides and air-dried for 30 min at room temperature. Bodipy 558/568-phalloidin staining was performed on whole mounts to visualise actin (background cell staining). ZsGreen fluorescence was evaluated with an Axioplan 2 (Zeiss, Germany) equipped with Epiplan-Neofluar objectives and an Axiocam camera. CD-31 (CY3) immunofluorescent labelling was performed on whole mounts to visualise the endothelium of blood vessels.
(A) Tumours were harvested 4 h after the last dose. Nuclei are stained with Hoechst, while (CY3) immunofluorescent labelling was performed to visualise acetylated H3. Representative sections from […] independent mice are shown. (B) and (C) Tumours were collected after 24 h using transcardial perfusion fixation with 4% paraformaldehyde. […]

The nature of data set [6]: Tolerability of once-daily oral dosing for 28 days. In kind it is in vivo. Particulars: up to 40 mpk p.o., immunodeficient mice. Here is the method: as §4
Data set [7] relates to ALL, AML, CLL, CML, lymphoma and myeloma tumour cells. Put plainly: cells. Particulars: Homo sapiens, read-out: IC50 values, proliferation of haematological tumour cells (range over panel).
Protocol: The effect of HDAC inhibitors on cell proliferation was measured using an MTT (3-(4,5-dimethyl-2-thiazolyl)-2,5-diphenyl-2H-tetrazolium bromide)-based assay (Serva, Heidelberg, Germany). Cells were seeded in Falcon or NUNC 96-well culture plates (Life Technologies, Merelbeke, Belgium) in 100 μl culture medium and allowed to adhere to plastic for 18–48 h. Test compounds were dissolved in DMSO and further dilutions were made in culture medium, with final concentrations of DMSO never exceeding 0.1% (v v^−1), and incubated for 4 days. Proliferation of NSCLC was assessed using Alamar Blue-based assay. Cells were seeded in COSTAR 384-well culture plates in 45 μl culture medium and allowed to adhere to plastic for 24 h. Alamar blue was added after 72 h, with the exception of HCC-15, HCC-44, NCI-H2122 and NCI-H460, where Alamar blue was added after 90 h and OD values were measured at 4 days following compound exposure. Data are presented as mean±s.d. of three independent experiments.

Read-outs that look alike come from different tables or passages of the source.

`O=C(NO)c1cnc(N2CCN(S(=O)(=O)c3ccc4ccccc4c3)CC2)nc1` [R306465]: the IC50 is 186 ± 23 nM in the data set on HUVECs; 32 ± 9.7 nM in data set [1] (read-out: IC50, primary HMEC proliferation); 7820 ± 435 nM in data set [1] (read-out: IC50, quiescent non-proliferative HMEC cells); 15 to 486 nM in data set [7]. Further, the “concentration at which H3 acetylation is induced” value in [2] (24 h, western blot) is reported as 100 nM. In data set [2] (24 h, western blot), the “concentration at which p21waf1,cip1 is induced” value stood at 100 nM. In data set [2] (H3 acetylation vs tubulin acetylation), the “cellular potency for HDAC1 vs HDAC6 (higher for HDAC1)” value was determined as 10 fold. Besides, the “concentration at which tubulin acetylation and Hsp70 levels increase” value in [3] is 1 µM. For the same compound, in data set [4], the “percentage of cells positive for Annexin V” value was “significant increase”. In addition, the “T/C values (%) A2780 ovarian” value worked out at 47% in [5] (10 mpk p.o. q.d. day 4 to 28), 13% in data set [5] (20 mpk p.o. q.d. day 4 to 28) and 24% in data set [5] (40 mpk p.o. q.d. day 4 to 28). Moreover, in the data set with p21waf1,cip1 promoter, the “p21waf1,cip1 promoter activation (ZsGreen fluorescence) in tumour sections” value is “large number of fluorescing cells”. The tolerability entry in data set [6] is given as “well-tolerated”.
